PubChem BioAssay AID330 (DTP/NCI, 2004)
Toxic doses and inconclusive results are not listed.

System: P388 leukemia ip, CD2F1 mice, survival T/C
Test: NCI In Vivo Anticancer Drug Screen. Data for tumor model P388 Leukemia (intraperitoneal) in CD2F1 (CDF1) mice
Details: endpoint: median survival time, higher = longer survival
Outline: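 Mice carrying the transplanted tumor received test compound or vehicle. Survival was recorded in each group, and the value is the treated-group measurement divided by that of the vehicle-treated control group.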

[1] = dose: 100.0 mg/kg/injection, schedule: Q01DX009 (ip), vehicle: saline with Tween-80
[2] = dose: 200.0 mg/kg/injection, schedule: Q01DX009 (ip), vehicle: saline with Tween-80
[3] = dose: 50.0 mg/kg/injection, schedule: Q01DX005 (ip), vehicle: saline with Tween-80
[4] = dose: 100.0 mg/kg/injection, schedule: Q01DX005 (ip), vehicle: saline with Tween-80
[5] = dose: 50.0 mg/kg/injection, schedule: Q01DX009 (ip), vehicle: saline with Tween-80
[6] = dose: 60.0 mg/kg/injection, schedule: Q01DX005 (ip), vehicle: saline with Tween-80
[7] = dose: 120.0 mg/kg/injection, schedule: Q01DX005 (ip), vehicle: saline with Tween-80
[8] = dose: 240.0 mg/kg/injection, schedule: Q01DX005 (ip), vehicle: saline with Tween-80

Structure (SMILES): CS(=O)(=O)Nc1ccc(Nc2c3ccccc3nc3cc([N+](=O)[O-])ccc23)cc1
- T/C (dose: 0.09 mg/kg/injection, schedule: Q01DX009 (ip), vehicle: saline with Tween-80): 121 % of control
- T/C (dose: 0.75 mg/kg/injection, schedule: Q01DX009 (ip), vehicle: saline with Tween-80): 169 % of control
- T/C (dose: 1.5 mg/kg/injection, schedule: Q01DX009 (ip), vehicle: saline with Tween-80): 169 % of control
- T/C (dose: 3.0 mg/kg/injection, schedule: Q01DX009 (ip), vehicle: saline with Tween-80): 177 % of control

Structure (SMILES): NC(N)=NS(=O)(=O)c1ccc(N2C(=O)CC3(CCCC3)C2=O)cc1
- T/C (dose: 50.0 mg/kg/injection, schedule: Q01DX009 (ip), vehicle: Klucel (hydroxypropylcellulose) (HPC)): 99 % of control
- T/C (dose: 100.0 mg/kg/injection, schedule: Q01DX009 (ip), vehicle: Klucel (hydroxypropylcellulose) (HPC)): 98 % of control
- T/C (dose: 200.0 mg/kg/injection, schedule: Q01DX009 (ip), vehicle: Klucel (hydroxypropylcellulose) (HPC)): 112 % of control

Structure (SMILES): CC(C)CNN(CC(C)C)C(N)=O
- T/C [1]: 102 % of control
- T/C [2]: 105 % of control

Structure (SMILES): S=C(N/N=C\c1c[nH]c2ccc(Br)cc12)NC12CC3CC(CC(C3)C1)C2
- T/C (dose: 60.0 mg/kg/injection, schedule: Q01DX005 (ip), vehicle: Klucel (hydroxypropylcellulose) (HPC)): 98 % of control
- T/C (dose: 120.0 mg/kg/injection, schedule: Q01DX005 (ip), vehicle: Klucel (hydroxypropylcellulose) (HPC)): 93 % of control
- T/C (dose: 240.0 mg/kg/injection, schedule: Q01DX005 (ip), vehicle: Klucel (hydroxypropylcellulose) (HPC)): 98 % of control

Structure (SMILES): CN(C)c1ccc(NC2=C(Cl)C(=O)C(Nc3ccc(N(C)C)cc3)=C(Cl)C2=O)cc1
- T/C (dose: 25.0 mg/kg/injection, schedule: Q01DX005 (ip), vehicle: saline with Tween-80): 101 % of control
- T/C [3]: 92 % of control
- T/C [4]: 88 % of control

Structure (SMILES): CC1CCC2(OC1)OC1C(O)C3C4CCC5CC(OC6OC(CO)C(OC7OC(CO)C(O)C(OC8OCC(O)C(O)C8O)C7OC7OC(CO)C(O)C(OC8OC(CO)C(O)C(O)C8O)C7O)C(O)C6O)C(O)CC5(C)C4CCC3(C)C1C2C (configuration not stated)
- T/C (dose: 0.62 mg/kg/injection, schedule: Q01DX009 (ip), vehicle: saline): 101 % of control
- T/C (dose: 1.25 mg/kg/injection, schedule: Q01DX009 (ip), vehicle: saline): 98 % of control
- T/C (dose: 2.5 mg/kg/injection, schedule: Q01DX009 (ip), vehicle: saline): 93 % of control
- T/C (dose: 5.0 mg/kg/injection, schedule: Q01DX009 (ip), vehicle: saline): 87 % of control
- T/C (dose: 40.0 mg/kg/injection, schedule: Q01DX009 (ip), vehicle: saline): 86 % of control

Structure (SMILES): CN(C)c1nc(O)cc(=O)[nH]1
- T/C [5]: 106 % of control
- T/C [1]: 100 % of control
- T/C [2]: 89 % of control

Structure (SMILES): CCCCC(=O)N/N=C/c1ccc([N+](=O)[O-])s1
- T/C [5]: 95 % of control
- T/C [1]: 99 % of control
- T/C [2]: 101 % of control

Structure (SMILES): Cc1cc(C(=O)NCCc2ccc(S(=O)(=O)NC(=O)NCC3CC4CCC3C4)cc2)no1 (configuration not stated)
- T/C (dose: 50.0 mg/kg/injection, schedule: Q01DX001 (ip), vehicle: Klucel (hydroxypropylcellulose) (HPC)): 106 % of control
- T/C (dose: 100.0 mg/kg/injection, schedule: Q01DX001 (ip), vehicle: Klucel (hydroxypropylcellulose) (HPC)): 97 % of control
- T/C (dose: 200.0 mg/kg/injection, schedule: Q01DX001 (ip), vehicle: Klucel (hydroxypropylcellulose) (HPC)): 94 % of control

Structure (SMILES): COc1ccc2c(c1)CN(CCc1ccccc1)CO2
- T/C [3]: 101 % of control
- T/C [4]: 101 % of control
- T/C (dose: 200.0 mg/kg/injection, schedule: Q01DX005 (ip), vehicle: saline with Tween-80): 97 % of control

Structure (SMILES): Cc1cc(=O)c2cc3nc(-c4cccnc4)oc3c(Br)c2o1
- T/C (dose: 50.0 mg/kg/injection, schedule: Q01DX005 (ip), vehicle: Klucel (hydroxypropylcellulose) (HPC)): 97 % of control
- T/C (dose: 100.0 mg/kg/injection, schedule: Q01DX005 (ip), vehicle: Klucel (hydroxypropylcellulose) (HPC)): 96 % of control
- T/C (dose: 200.0 mg/kg/injection, schedule: Q01DX005 (ip), vehicle: Klucel (hydroxypropylcellulose) (HPC)): 88 % of control

Structure (SMILES): O=[N+]([O-])O.O=[N+]([O-])O.[NH-]C(c1ccccc1)C([NH-])c1ccccc1.[Pt+2] (configuration not stated)
- T/C (dose: 6.25 mg/kg/injection, schedule: Q04DX002 (ip), vehicle: saline): 161 % of control
- T/C (dose: 12.5 mg/kg/injection, schedule: Q04DX002 (ip), vehicle: saline): 154 % of control
- T/C (dose: 25.0 mg/kg/injection, schedule: Q04DX002 (ip), vehicle: saline): 154 % of control

Structure (SMILES): Cc1ccc(N2CC(O)CN(c3ccc(C)cc3)CC(O)C2)cc1 (configuration not stated)
- T/C [6]: 97 % of control
- T/C [7]: 97 % of control
- T/C [8]: 94 % of control

Structure (SMILES): CCOC(=O)CCCCCOC1CCCCO1 (configuration not stated)
- T/C [6]: 98 % of control
- T/C [7]: 97 % of control
- T/C [8]: 103 % of control

Structure (SMILES): O=C1NC(=O)C2CCC12 (configuration not stated)
- T/C [5]: 100 % of control
- T/C [1]: 100 % of control
- T/C [2]: 100 % of control
